# Measured values: patent US20250235460A1, “COMBINATION THERAPY USING GLUCOSE-DEPENDENT INSULINOTROPIC POLYPEPTIDE RECEPTOR ANTAGONIST COMPOUNDS AND GLP-1 RECEPTOR AGONIST COMPOUNDS” (Pfizer Inc., priority 2024, published 2025)
# pEC50: −log10 of the molar value. Like-named read-outs stand apart in the source and are kept apart here.
# Target: human GLP-1R (Homo sapiens, UniProt P43220, G168S)
# Assay: CHO GLP-1R Clone H6 cAMP HTRF agonist assay (Assay 1, high receptor density)
# Type: cell-based
# Conditions: for pEC50: CHO GLP-1R clone H6, cAMP HTRF, geometric mean; for Emax: arithmetic mean
# From the text: In Table 5 and Table 6, assay data are presented to two (2) significant figures as the geometric mean (EC50s) and arithmetic mean (Emax) based on the number of replicates listed (Number). A blank cell means there was no data for that Example or the Emax was not calculated.
# [1] = CHO GLP-1R clone H6, relative to saturating GLP-1 (1 μM), read-out: Assay 1 Emax (%)
# Chain of human GLP-1R (P43220 24-463 G168S): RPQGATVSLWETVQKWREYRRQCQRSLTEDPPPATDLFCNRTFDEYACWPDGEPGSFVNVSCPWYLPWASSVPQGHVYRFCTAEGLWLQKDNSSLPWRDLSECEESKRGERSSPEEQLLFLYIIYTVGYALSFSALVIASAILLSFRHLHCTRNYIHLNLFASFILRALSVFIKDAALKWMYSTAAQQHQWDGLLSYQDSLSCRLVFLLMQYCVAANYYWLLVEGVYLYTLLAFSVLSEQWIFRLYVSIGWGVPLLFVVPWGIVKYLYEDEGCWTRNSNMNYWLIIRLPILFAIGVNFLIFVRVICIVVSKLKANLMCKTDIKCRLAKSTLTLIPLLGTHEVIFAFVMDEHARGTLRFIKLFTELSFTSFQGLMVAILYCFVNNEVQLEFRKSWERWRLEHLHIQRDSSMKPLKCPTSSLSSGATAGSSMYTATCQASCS
SMILES,pEC50,Emax [1],"Emax (relative to saturating full agonist GLP-1 (1 μM), read-out: Assay 1 Emax)"
"COCCn1c(CN2CCN(c3ccc(F)c(OCc4ccc(Cl)cc4F)n3)CC2C)nc2ccc(C(=O)O)cc21 (stereo in doubt) [Compound 174B, 2-{[(2S)-4-{6-[(4-chloro-2-fluorobenzyl)oxy]-5-fluoropyridin-2-yl}-2-methylpiperazin-1-yl]methyl}-1-(2-methoxyethyl)-1H-benzimidazole-6-carboxylic acid]",6.06,,
"CO[C@@H]1CCC[C@H]1n1c(CN2CCC(c3cccc(OCc4ccc(Cl)cc4F)n3)CC2)nc2ccc(C(=O)O)cc21 (stereo in doubt) [Compound 194B, 2-[(4-{6-[(4-chloro-2-fluorobenzyl)oxy]pyridin-2-yl}piperidin-1-yl)methyl]-1-[(1R,2R)-2-methoxycyclopentyl]-1H-benzimidazole-6-carboxylic acid]",7.12,69%,
"CN1CC[C@@H]1Cn1c(CN2CCC(c3cccc(OCc4ccc(Cl)cc4F)n3)CC2)nc2ccc(C(=O)O)cc21 (stereo in doubt) [Compound 275B, 2-[(4-{6-[(4-chloro-2-fluorobenzyl)oxy]pyridin-2-yl}piperidin-1-yl)methyl]-1-[(1-methylazetidin-2-yl)methyl]-1H-benzimidazole-6-carboxylic acid]",< 4.70,,
"COCCn1c(CN2CCC(c3cccc4c3OC(C)(c3ccc(C#N)cn3)O4)CC2)nc2ccc(C(=O)O)cc21 (stereo not drawn) [Compound 98B, ammonium 2-({4-[2-(5-cyanopyridin-2-yl)-2-methyl-1,3-benzodioxol-4-yl]piperidin-1-yl}methyl)-1-(2-methoxyethyl)-1H-benzimidazole-6-carboxylate, ENT-X2]",,,89%
"N#Cc1ccc(COc2cccc(C3CCN(Cc4nc5ccc(C(=O)O)cc5n4CC4CCO4)CC3)n2)c(F)c1 (stereo not shown) [Compound 109B, 2-[(4-{6-[(4-cyano-2-fluorobenzyl)oxy]pyridin-2-yl}piperidin-1-yl)methyl]-1-[oxetan-2-ylmethyl]-1H-benzimidazole-6-carboxylic acid]",,83%,
"O=C(O)c1ccc2nc(CN3CCC(c4cccc(OCc5ccc(F)cc5F)n4)CC3)n(C[C@@H]3CCO3)c2n1 [Compound 118B, 2-[(4-{6-[(2,4-difluorobenzyl)oxy]pyridin-2-yl}piperidin-1-yl)methyl]-3-[(2S)-oxetan-2-ylmethyl]-3H-imidazo[4,5-b] pyridine-5-carboxylic acid]",6.12,76%,
"O=C(O)c1ccc2nc(CN3CCN(c4cccc(OCc5ccc(Cl)cc5F)n4)CC3)n(C[C@@H]3CCO3)c2c1 [Compound 119B, 2-[(4-{6-[(4-chloro-2-fluorobenzyl)oxy]pyridin-2-yl}piperazin-1-yl)methyl]-1-[(2S)-oxetan-2-ylmethyl]-1H-benzimidazole-6-carboxylic acid]",6.68,66%,
"O=C(O)c1ccc2nc(CN3CCC(c4cccc(OCc5ccc(Cl)cc5F)n4)CC3)n(C[C@H]3CCOC3)c2c1 [Compound 121B, 2-[(4-{6-[(4-chloro-2-fluorobenzyl)oxy]pyridin-2-yl}piperidin-1-yl)methyl]-1-[(3R)-tetrahydrofuran-3-ylmethyl]-1H-benzimidazole-6-carboxylic acid]",< 4.70,,
"N#Cc1ccc(COc2cccc(C3CCN(Cc4nc5ccc(C(=O)O)cc5n4C[C@@H]4CCO4)CC3)n2)cc1 [Compound 130B, 2-[(4-{6-[(4-cyanobenzyl)oxy]pyridin-2-yl}piperidin-1-yl)methyl]-1-[(2S)-oxetan-2-ylmethyl]-1H-benzimidazole-6-carboxylic acid]",< 4.96,84%,
"C[C@H]1CN(c2cccc(OCc3ccc(Cl)cc3F)n2)CCN1Cc1nc2ccc(C(=O)O)cc2n1Cc1cnco1 [Compound 147B, 2-{[(2S)-4-{6-[(4-chloro-2-fluorobenzyl)oxy]pyridin-2-yl}-2-methylpiperazin-1-yl]methyl}-1-(1,3-oxazol-5-ylmethyl)-1H-benzimidazole-6-carboxylic acid]",6.68,79%,
"C[C@H]1CN(c2cccc(OCc3ccc(Cl)cc3F)n2)CCN1Cc1nc2ccc(C(=O)O)cc2n1Cc1ncco1 [Compound 148B, 2-{[(2S)-4-{6-[(4-chloro-2-fluorobenzyl)oxy]pyridin-2-yl}-2-methylpiperazin-1-yl]methyl}-1-(1,3-oxazol-2-ylmethyl)-1H-benzimidazole-6-carboxylic acid]",6.47,74%,
"CCn1cncc1Cn1c(CN2CCN(c3cccc(OCc4ccc(C#N)cc4F)n3)CC2)nc2ccc(C(=O)O)cc21 [Compound 152B, 2-[(4-{6-[(4-cyano-2-fluorobenzyl)oxy]pyridin-2-yl}piperazin-1-yl)methyl]-1-[(1-ethyl-1H-imidazol-5-yl)methyl]-1H-benzimidazole-6-carboxylic acid]",6.43,75%,
"COCCn1c(CN2CCC(c3cccc(OCc4ccc(C#N)cc4)n3)CC2)nc2ccc(C(=O)O)c(F)c21 [Compound 169B, 2-[(4-{6-[(4-cyanobenzyl)oxy]pyridin-2-yl}piperidin-1-yl)methyl]-7-fluoro-1-(2-methoxyethyl)-1H-benzimidazole-6-carboxylic acid]",5.92,78%,
"COCCn1c(CN2CCN(c3cccc(OCc4ccc(C#N)cc4)n3)CC2)nc2ccc(C(=O)O)cc21 [Compound 171B, 2-[(4-{6-[(4-cyanobenzyl)oxy]pyridin-2-yl}piperazin-1-yl)methyl]-1-(2-methoxyethyl)-1H-benzimidazole-6-carboxylic acid]",6.70,79%,
"COCCn1c(CN2CCN(c3cccc(OCc4ccc(C#N)cc4)n3)C[C@@H]2C)nc2ccc(C(=O)O)cc21 [Compound 172B, 2-{[(2S)-4-{6-[(4-cyanobenzyl)oxy]pyridin-2-yl}-2-methylpiperazin-1-yl]methyl}-1-(2-methoxyethyl)-1H-benzimidazole-6-carboxylic acid]",5.54,,
"COCCn1c(CN2CCN(c3cccc(OCc4ccc(C#N)cc4F)n3)C[C@@H]2C)nc2ccc(C(=O)O)cc21 [Compound 173B, 2-{[(2S)-4-{6-[(4-cyano-2-fluorobenzyl)oxy]pyridin-2-yl}-2-methylpiperazin-1-yl]methyl}-1-(2-methoxyethyl)-1H-benzimidazole-6-carboxylic acid]",5.57,85%,
"COCCn1c(CN2CCC(c3cccc(OCc4ccc(Cl)cc4F)n3)CC2)nc2ccc(C(=O)O)cc21 [Compound 176B, 2-[(4-{6-[(4-chloro-2-fluorobenzyl)oxy]pyridin-2-yl}piperidin-1-yl)methyl]-1-(2-methoxyethyl)-1H-benzimidazole-6-carboxylic acid]",5.62,87%,
"COC1(Cn2c(CN3CCC(c4cccc(OCc5ccc(Cl)cc5F)n4)CC3)nc3ccc(C(=O)O)cc32)CCC1 [Compound 177B, 2-[(4-{6-[(4-chloro-2-fluorobenzyl)oxy]pyridin-2-yl}piperidin-1-yl)methyl]-1-[(1-methoxycyclobutyl)methyl]-1H-benzimidazole-6-carboxylic acid]",6.06,,
"COCCn1c(CN2CCC(c3ccc(F)c(OCc4ccc(Cl)cc4F)n3)CC2)nc2ccc(C(=O)O)cc21 [Compound 178B, 2-[(4-{6-[(4-chloro-2-fluorobenzyl)oxy]-5-fluoropyridin-2-yl}piperidin-1-yl)methyl]-1-(2-methoxyethyl)-1H-benzimidazole-6-carboxylic acid]",5.35,48%,
"COCCn1c(CN2CCN(c3nc(OCc4ccc(Cl)cc4F)ccc3F)CC2)nc2ccc(C(=O)O)cc21 [Compound 179B, 2-[(4-{6-[(4-chloro-2-fluorobenzyl)oxy]-3-fluoropyridin-2-yl}piperazin-1-yl)methyl]-1-(2-methoxyethyl)-1H-benzimidazole-6-carboxylic acid]",5.80,83%,
"COCCn1c(CN2CCN(c3nc(OCc4ccc(Cl)cc4F)ccc3F)C[C@@H]2C)nc2ccc(C(=O)O)cc21 [Compound 180B, 2-{[(2S)-4-{6-[(4-chloro-2-fluorobenzyl)oxy]-3-fluoropyridin-2-yl}-2-methylpiperazin-1-yl]methyl}-1-(2-methoxyethyl)-1H-benzimidazole-6-carboxylic acid]",< 4.77,100%,
"COCCn1c(CN2CCC(c3cccc(OCc4ccccc4)n3)CC2)nc2ccc(C(=O)O)cc21 [Compound 181B, 2-({4-[6-(benzyloxy)pyridin-2-yl]piperidin-1-yl}methyl)-1-(2-methoxyethyl)-1H-benzimidazole-6-carboxylic acid]",6.77,68%,
"COCCn1c(CN2CCN(c3cccc(OCc4ccc(Cl)cc4F)n3)C(C)(C)C2)nc2ccc(C(=O)O)cc21 [Compound 182B, 2-[(4-{6-[(4-chloro-2-fluorobenzyl)oxy]pyridin-2-yl}-3,3-dimethylpiperazin-1-yl)methyl]-1-(2-methoxyethyl)-1H-benzimidazole-6-carboxylic acid]",5.74,93%,
"Cn1cncc1Cn1c(CN2CCC(c3cccc(OCc4ccc(F)cc4F)n3)CC2)nc2ccc(C(=O)O)cc21 [Compound 186B, 2-[(4-{6-[(2,4-difluorobenzyl)oxy]pyridin-2-yl}piperidin-1-yl)methyl]-1-[(1-methyl-1H-imidazol-5-yl)methyl]-1H-benzimidazole-6-carboxylic acid]",5.77,82%,
"O=C(O)c1cnc2nc(CN3CCC(c4cccc(OCc5ccc(Cl)cc5F)n4)CC3)n(CC(F)(F)F)c2c1 [Compound 212B, 2-[(4-{6-[(4-chloro-2-fluorobenzyl)oxy]pyridin-2-yl}piperidin-1-yl)methyl]-1-(2,2,2-trifluoroethyl)-1H-imidazo[4,5-b]pyridine-6-carboxylic acid]",6.72,71%,
